In US7253176B1, “Immunosuppressive effects of 8-substituted xanthine derivatives” (K.U. Leuven Research & Development, priority 2000, dated 2007):
pIC50: −log10 of the molar value.

Experiments:
[1] = tested on: Highly purified T cells; assay: T cell proliferation induced by anti-CD28 mAb+PMA (BrdU); type: cell-based, human; settings: read-out: IC50 aCD28
Source text: (§1) Various models may be used for testing an immunosuppressive effect. In vivo, for example, different transplantation models are available. They are strongly influenced by different immunogenicities, depending on the donor and recipient species used and depending on the nature of the transplanted organ. The survival time of transplanted organs can thus be used to measure the suppression of the immune response. In vitro, there exist also various models. The most used are lymphocyte activation tests. Usually activation is measured via lymphocyte proliferation. Inhibition of proliferation thus always means immunosuppression under the experimental conditions applied. There exist different stimuli for lymphocyte activation: • coculture of lymphocytes of […] (MLR=mixed lymphocyte reaction): lymphocytes expressing different minor and major antigens of the HLA-DR type (=allogens) activate each other non-specifically. • CD3 assay: here there is an activation of the T-lymphocytes via an exogenously added antibody (OKT3). This antibody reacts against the CD3 molecule located on the lymphocyte membrane. This molecule has a […]. […] This molecule is also located on the lymphocyte membrane, and delivers strong costimulatory signals. […] Reagents
T cells were purified by removing non-T cells. Briefly, monocytes were removed by cold agglutination. The resulting lymphoid cells were further purified by a cell enrichment immunocolumn [Cellect Human T (Biotex, Edmonton, Alberta, Canada)] by a process of negative selection. More than 95% of the B cells were removed with this procedure. After depletion, the resulting T cell preparation was highly purified explaining these cells could not be activated by PHA or rIL-2 alone at concentrations capable of stimulating RBMC prior to deletion.
(§2) Measurements of T Cell Proliferations Induced by Anti-CD3 mAB+PMA or Anti-CD28 mAb+PMA
(§3) Highly purified T cells (10^6/ml) were stimulated by immobilized anti-CD3 or anti-CD28 mAb in the presence of PMA. Anti-CD3 mAb (CLB-CD3; CLB, Amsterdam, The Netherlands) were fixed on the 96-microwell plates by incubating the wells with 50 μl of mAb solution […] 50 μl (1/650 dilution in culture medium) was added directly to the wells. Further, 20 μl PMA (Sigma, St. Louis, Mo., USA) solution (final concentration: 0.5 ng/ml) was added. Subsequently, 20 μl of immunosuppressants were added by serial dilution in triplicate wells. Finally 100 μl of the T cell suspension (10^6/ml) was added. After 48-hour incubation at 37° C. in 5% CO2 20 μl BrdU (100 μM solution) (Cell Proliferation Elisa, Boehringer-Mannheim Belgium) was added to each well. After a further overnight incubation the T cell proliferation was measured using a calorimetric immunoassay for qualification of cell proliferation based on measurements of the incorporation of BrdU during DNA synthesis. The optical density (OD) was measured by a Behring EL311 place reader at 450 nm (reference wavelength: […]). The percent suppression of proliferation by drugs was counted using the formula: […]

[2] = tested on: Con A induced proliferation of lymphocytes; assay: Whole Blood Assay (WBA): Con A induced lymphoproliferation in blood of rats given test substances in vivo; set-up: species or system R/A rats; settings: orally 40 mg/kg/d 2x/d 2d, blood taken after 8 h, Con A 15 μg/ml
Description: [formula] […] Whole Blood Assay (WBA): WBA is a lymphoproliferation assay performed in vitro but using lymphocytes present in whole blood, taken from animals that were previously given test substances in vivo.
Rats: inbred, male 6- to 8-weeks old R/A rats weighing ±200 g were used as recipients.
Drug administration: xanthine derivatives were dissolved in DMSO and further diluted with PBS. Products were given orally in different concentrations 2 times a day for 2 days. To perform the experiments, 6–8 hours after the last administration 1 ml of blood is taken by heart puncture after ether anesthesia and anticoagulated with 100 U/ml of preservative free heparine. […]
Heparinized whole blood was diluted (1:25) with complete RPMI medium and stimulated with 15 μg/ml of concanavalin A (Con A) in triplicate wells in 96-well microtiter plates at 37° C. and 5% CO2. After 96-h culture, proliferation was determined by measuring the incorporation (cpm) of [^3H]-thymidine.
The Con A induced proliferation of lymphocytes taken from rats receiving the test substances (exp) was compared with that from rats receiving only the solvent (con). The percent suppression was calculated as follows: […]

[3] = tested on: Peripheral blood mononuclear cells (PBMC); assay: Mixed lymphocyte reaction (MLR), [3H]-thymidine incorporation; type: cell-based, human
Source text: as §1
Mixed Lymphocyte Reaction
Peripheral blood mononuclear cells (PBMC) were isolated from heparinized peripheral blood by density gradient centrifugation over Lymphoprep (Nycomed, Maorstua, Norway). Allogeneic PBMC or EBV-transformed human B cells [RPMI1788 (ATCC name CCL156)] which strongly express B7-1 and B7-2 were used as stimulator calls after irradiation with 30 Gy. MLR was performed in triplicate wells. After 5 days incubation at 37° C., 1 μCi [^3H]-thymidine was added to each cup. After a further 16 hours incubation, cells were harvested and counted in a β-counter.
The percent suppression of proliferation by drugs was counted using the formula: […]

[4] = tested on: Highly purified T cells; assay: T cell proliferation induced by anti-CD3 mAb+PMA (BrdU); type: cell-based, human; settings: read-out: IC50 aCD3
Source text: T cells were purified by removing non-T cells. Briefly, monocytes were removed by cold agglutination. The resulting lymphoid cells were further purified by a cell enrichment immunocolumn [Cellect Human T (Biotex, Edmonton, Alberta, Canada)] by a process of negative selection.
as §2, §3

[5] = Homo sapiens, T-cell, anti-CD28 mAb+PMA pathway
[6] = Homo sapiens, PBMC, lowest concentration giving 50% suppression of the MLR
[7] = Homo sapiens, T-cell, anti-CD3 mAb+PMA pathway
[8] = Homo sapiens, T-cell, immunosuppressants for comparison, anti-CD28 mAb+PMA
[9] = Homo sapiens, T-cell, immunosuppressants for comparison, anti-CD3 mAb+PMA

Molecule: 1,3-dipropyl-8-[4(diethylamino(propyl(amino-(sulfonyl))))fenyl]xanthine [Compound 11]
- pIC50 ([1]; anti-CD28 mAb+PMA pathway): 4.26
- % suppresion [2]: 33%
- pIC50 ([3]; lowest concentration giving 50% suppression of the MLR): 4.60
- pIC50 ([4]; anti-CD3 mAb+PMA pathway): 4.40

Molecule: CC#Cn1c(=O)c2c(ncn2C#CC)n(C)c1=O [Compound 2, 1,7-dipropynyl-3-methylxanthine]
- melting point: 177 °C

Molecule: CC#Cn1c(=O)c2c(ncn2C)n(C#CC)c1=O [Compound 4, 1,3-dipropynyl-7-methylxanthine]
- pIC50 [1, 5]: < 3.70
- pIC50 [3, 6]: < 3.70
- melting point: 172 °C
- pIC50 [4, 7]: 4.05

Molecule: CC#Cn1c(=O)c2c(ncn2C#CC)n(C#CC)c1=O [Compound 5, 1,3,7-tripropynylxanthine]
- pIC50 [1, 5]: < 3.70
- pIC50 [3, 6]: < 3.70
- melting point: 155 °C
- pIC50 [4, 7]: 4.30

Molecule: Cn1cnc2c1c(=O)n(CCCCC(=O)O)c(=O)n2C [Compound 22, 1-(4-Carboxybutyl)-3,7-dimethylxanthine]
- pIC50 [1, 5]: < 3.70
- pIC50 [3, 6]: < 3.70
- melting point: 195 °C
- pIC50 [4, 7]: < 3.70

Molecule: Cn1c(=O)c2c(ncn2C)n(CC(C)(C)C)c1=O [Compound 68, 1,7-dimethyl-3-((tertbutyl)methyl)xanthine]
- pIC50 [1, 5]: 3.92
- pIC50 [3, 6]: 4.12
- melting point: 158 °C
- pIC50 [4, 7]: 3.89

Molecule: Cc1oncc1C(=O)Nc1ccc(C(F)(F)F)cc1 [Leflunomide, reference compound]
- pIC50 [1, 5]: 4.70
- pIC50 [3, 6]: 4.60
- pIC50 [4, 7]: 4.82

Molecule: COc1c(C)c2c(c(O)c1C/C=C(\C)CCC(=O)O)C(=O)OC2 [Moferil, Mycophenolic acid, reference compound]
- pIC50 [1, 8]: 7.30
- pIC50 [3, 6]: > 6.30
- pIC50 [4, 9]: 7.30

Molecule: CO[C@H]1C[C@@H]2CC[C@@H](C)[C@@](O)(O2)C(=O)C(=O)N2CCCC[C@H]2C(=O)O[C@H]([C@H](C)C[C@@H]2CC[C@@H](O)[C@H](OC)C2)CC(=O)[C@H](C)/C=C(\C)[C@@H](O)[C@@H](OC)C(=O)[C@H](C)C[C@H](C)/C=C/C=C/C=C/1C [Rapamycin, reference compound]
- pIC50 [1, 8]: 9.00
- pIC50 ([3]; Homo sapiens, PBMC, immunosuppressants for comparison): 9.00
- pIC50 [4, 9]: 9.00
